Positions of bridges follow the written chain, without caps; N, C: chain ends. Residues, ends and D or L forms follow the SMILES beside them.

Test [1] concerns the target T1, IgG4 (Homo sapiens, UniProt P01861). The test can be described thus: Column capture of human IgG4 from goat IgG in buffer. The class given is binding. Further details: all human subtypes derived from myeloma patients; purchased Calbiochem 400126; host or cells: myeloma patients. The following applies: SEC-HPLC; load 99.5% monomer. The protocol:
0.250 mg of hIgG4 (99.5% monomer) was added to 1.0 mg of goat IgG in a total volume of 1.0 ml of PBST, pH 7.2. Thus, 1.0 ml was loaded onto a 350 ul mini-column as described above. The column was washed to baseline with PBST, pH 7.2 and the flowthrough fraction collected. Bound IgG was eluted with 0.1M sodium bicarbonate buffer, pH 9.0 and the column cleaned with 0.1M CAPS, pH 11.5. The eluted and clean fractions were quickly neutralized to pH˜7.2 and assayed for mass recovery by SEC-HPLC. […] The column load, flowthrough, elution and cleaning fractions were further analyzed by electrophoresis (SDS-PAGE), Coomassie stain.

For another test, the target named is T2, human plasma IgG2 (Homo sapiens, UniProt P01859).
T2 construct: the individual human plasma IgG isoforms: IgG1, IgG2, IgG3, or IgG4; purchased Calbiochem; host or cells: human plasma
The test can be described thus: Fluorescence anisotropy binding, fluorescein-labeled peptide. The protocol: (§1) All measurements were performed in 384 well microplates with 20 nM fluorescein-labeled peptide and various concentrations of the IgG isoform in a volume of between 10 and 20 μl using a Tecan Polarion fluorescence polarization plate reader. All binding buffers included 0.01% (v/v) Tween 20 to prevent peptide adsorption to the microplate. The binding mixture was equilibrated for 10 minutes in the microplate at 30° C. prior to performing the measurement.
(§2) Peptides were synthesized, fluorescein-labeled and HPLC purified as described above. Binding studies were performed using either a mixture of human plasma IgG isoforms (the Fc protein) or the individual human plasma IgG isoforms: IgG1, IgG2, IgG3, or IgG4.
(§3) Measurements were performed in 384-well microplates with 2 nM fluorescein-labeled peptide and a varied concentration of the IgG isoform target in a volume of 10 μl using a Tecan Polarion fluorescence polarization plate reader. The Fc binding buffer was 50 mM Tris-HCl, 200 mM NaCl, pH 8.0, 0.01% Tween 20. The IgG binding buffer was PBS with 0.01% Tween 20. The binding mixtures were equilibrated for 10 minutes in the microplate at 30° C. prior to performing the measurements.
On the technique in general: In fluorescence polarisation assays a small probe gives low polarisation when free and higher when bound to something large.

A further test concerns the target T3, human plasma IgG1 (Homo sapiens, UniProt P01857).
T3 construct: the individual human plasma IgG isoforms: IgG1, IgG2, IgG3, or IgG4; purchased Calbiochem; host or cells: human plasma
The description is as above. The protocol:
as §1, §2, §3

For another test, the target named is T4, human IgG1 (Homo sapiens, UniProt P01857).
T4 construct: all human subtypes derived from myeloma patients; purchased Calbiochem 400120; host or cells: myeloma patients
The test can be described thus: Column capture from conditioned CHO cell culture supernatant containing 5% fetal bovine serum. To be noted: SEC-HPLC; load 93% monomer. Format: binding. The protocol:
Human IgG1 (93% monomer) was spiked into conditioned CHO media to 50 μg/ml and 5 ml (250 μg total) was loaded onto a 350 μl mini-column as described above. The column was washed to baseline with PBST, pH 7.2 and the flowthrough fraction collected. Bound IgG was eluted with 0.1M sodium bicarbonate buffer, pH 9.0, and the column cleaned with 0.1M CAPS, pH 11.5. The eluted and clean fractions were quickly neutralized to ˜pH 7.2 and assayed for mass recovery by SEC-HPLC. Thus, an 80% recovery (98% monomer) was obtained in the eluted fraction. The column load, flowtbrough, elution and cleaning fractions were further analyzed by electrophoresis (SDS-PAGE), Coomassie stain and Western analysis for the presence of human and bovine IgG.

A further test deals with T5, hIgG1 (Homo sapiens, UniProt P01857).
T5 construct: purchased Calbiochem 400120; host or cells: human myeloma patients
As to the kind of experiment: Mini-chromatography column binding (dynamic conditions). The following applies: 350 μl column, human IgG1 spiked into PBST, pH 7.2. The protocol:
Thus, 250 μg of target (hIgG1, hIgG2, hIgG3, hIgG4, goat IgG and bovine IgG) at 0.250 mg/ml in PBST, pH 7.2 or TBST, pH 7.3 was loaded onto a 350 μl column (3×50 mm) run at 0.200 ml/min. flowrate (170 cm/hr). Flowthrough, elution and cleaning fractions were collected and assayed for total protein recovery by size-exclusion HPLC. Percentage mass balance was also determined to be 90-100% on average.
(§4) For these experiments, 350 μl columns (3×50 mm) were packed with each media. The columns were tested with human Fc fragments or human IgG1 (Calbiochem, 401104 and 400120 respectively) spiked into PBST, pH 7.2 at a concentration of 0.5 g/l. 65 μg of Fc was loaded onto each column. After loading, the columns were washed with PBST, pH 7.2, eluted with 30 mM H3PO4, 150 mM NaCl, pH 2.0 and cleaned with 0.1M CAPS, pH 11.5 buffer (3-[Cyclohexylamino]-1-propane-sulfonic acid). Fractions collected were immediately neutralized to pH ˜7.2 with 2.0 M Tris, pH 8.0. All column operations were conducted at 200 μl/min (170 cm/hr).

Another test deals with human Fc fragments. The test can be described thus: Mini-chromatography column capture from PBST. Format: binding. To be noted: 350 μl column, Fc spiked into PBST, pH 7.2. The procedure: as §4
The target in test [2] is T1, IgG4. As to the kind of experiment: Competition between synthetic peptides and Protein A for Fc binding. Further details: the individual human plasma IgG isoforms: IgG1, IgG2, IgG3, or IgG4; purchased Calbiochem; host or cells: human plasma; key: NB: no detected binding.; ?: partial decrease in anisotropy with added competitor. The following applies: 5 mg/ml protein A. The protocol:
Cross-competition studies between peptides were performed using 20 nM fluorescein-labeled peptide and 1-2 μM IgG1, IgG2, IgG3, or IgG4 in the presence and absence of a maximum of 100 μM unlabeled peptide or 5 mg/ml protein A.
This is consistent with the fact that Protein A is known not to bind human IgG3.

[3] abbreviates: pH 9.3, 0.01 M sodium bicarbonate.
The mark [4] stands for this setting: pH 9.3, .01 M sodium bicarbonate, 0.2 M NaCl.

In general, Kd refers to the concentration at which binding is half-saturated. As to `CC[C@H](C)[C@@H]1NC(=O)[C@H](CC(C)C)NC(=O)[C@H](CCC(=O)O)NC(=O)CNC(=O)[C@H](Cc2c[nH]c3ccccc23)NC(=O)[C@H]([C@@H](C)O)NC(=O)[C@H]([C@@H](C)O)NC(=O)[C@H](Cc2ccc(O)cc2)NC(=O)[C@H](C(C)C)NC(=O)[C@@H](NC(=O)[C@H](CCSC)NC(=O)[C@H](Cc2c[nH]cn2)NC(=O)[C@H](CC(=O)O)NC(=O)[C@H](CC(=O)O)NC(=O)CNC(C)=O)CSSC[C@@H](C(=O)N[C@@H](CC(=O)O)C(=O)N[C@@H](CC(N)=O)C(=O)N[C@@H](Cc2c[nH]cn2)C(=O)N[C@@H](CCC(=O)O)C(=O)N2CCC[C@H]2C(=O)NCC(=O)N2CCC[C@H]2C(=O)N[C@@H](CCC(=O)O)C(=O)NCC(=O)NCC(=O)NCC(=O)N[C@@H](CCCCN)C(N)=O)NC(=O)[C@H](Cc2c[nH]c3ccccc23)NC1=O` [DX249] (Ac-GDDHMCVYTTWGELIWCDNHEPGPEGGGK-NH2; disulfide 6-17), the “Monomer in the eluted fraction” value at IgG4 [1] is given as 99.5%; at human IgG1 it was 98%. Moreover, the Kd was 1.1 ± 0.3 µM at human plasma IgG2 (pH 7.4, PBS, […] NaCl); more than 10 µM at human plasma IgG2 (setting [3]); 0.074 ± 0.053 µM at human plasma IgG1 (pH 5.7, 0.01 M Tris-acetate, 0 M NaCl); 0.84 ± 0.7 µM on human plasma IgG1 (pH 5.7, 0.01 M Tris-acetate, […] NaCl); 0.4 ± 0.06 µM on human plasma IgG1 (pH 7.4, 0.01 M Tris-HCl); 2.9 ± 0.9 µM at human plasma IgG1 (pH 7.4, PBS, […] NaCl). The Kd on human plasma IgG1 (pH 7.4 PBS, […] NaCl, 15% EG) is 3.6 ± 2.5 µM; at human plasma IgG1 (setting [3]), more than 10 µM; at human plasma IgG1 (setting [4]) it was more than 10 µM. In addition, on human plasma IgG1 (15% ethylene glycol), the “Effect of including 15% ethylene glycol on binding to IgG1” value was “no observed effect”.
For the compound `CC(=O)NCC(=O)N[C@@H](CC(=O)O)C(=O)N[C@@H](CC(=O)O)C(=O)N[C@@H](CC(=O)O)C(=O)N[C@@H](Cc1c[nH]cn1)C(=O)N[C@H]1CSSC[C@@H](C(=O)N2CCC[C@H]2C(=O)N[C@@H](Cc2c[nH]cn2)C(=O)NCC(=O)N[C@@H](CCC(=O)O)C(=O)N2CCC[C@H]2C(=O)NCC(=O)N2CCC[C@H]2C(=O)N[C@@H](CCC(=O)O)C(=O)NCC(=O)NCC(=O)NCC(=O)N[C@@H](CCCCN)C(N)=O)NC(=O)[C@H](CCC(=O)O)NC(=O)[C@H](CO)NC(=O)[C@H](CC(N)=O)NC(=O)[C@H](Cc2ccccc2)NC(=O)[C@H](Cc2c[nH]c3ccccc23)NC(=O)[C@H](CCC(=O)O)NC(=O)[C@H](CCCNC(=N)N)NC(=O)[C@H](Cc2ccccc2)NC(=O)[C@H](Cc2c[nH]c3ccccc23)NC(=O)[C@H](Cc2ccc(O)cc2)NC1=O` [DX252] (Ac-GDDDHCYWFREWFNSECPHGEPGPEGGGK-NH2; disulfide 6-17 (inferred)), the “Capture efficiency, IgG1” value on hIgG1 came out at 80%. In addition, the “Capture efficiency, Fc” value in the test on human Fc fragments is on record as 70%. For the same compound, at IgG4 [2], the “Competition between labeled peptide and Protein A, IgG4” value was “NB”. Also, the Kd is more than 1 µM on human plasma IgG2 (pH 5.7, 0.01 M Tris-acetate); 2.1 to 3.4 µM at human plasma IgG2 (pH 7.4, 0.01 M Tris-HCl); more than 10 µM on human plasma IgG2 (setting [3]); 2.1 to 3.4 µM at human plasma IgG1 (pH 7.4, 0.01 M Tris-HCl); 2.9 ± 1.6 µM at human plasma IgG1 (pH 7.4, PBS, […] NaCl); more than 10 µM at human plasma IgG1 (setting [3]). At human plasma IgG1 (setting [4]), this compound returned a Kd of more than 10 µM.

The record behind these values is patent publication US20030199671A1, “Binding molecules for Fc-region polypeptides” (priority 2001, published 2003).
